Experiments:
[1] = tested on: cBidmt1+Bax; experiment: Control liposome permeabilization without Bcl-xL, cBidmt1+Bax; assay type: biochemical; conditions: 320 nM pH9 treated TCTP, 100 nM Bax, 20 nM cBidmt1
Protocol: (§1) (A–E) in vitro reconstitution assay on liposome permeabilization. […] The treated Bcl-xL was then added to reactions containing ANTS-DPX liposomes, 100 nM Bax and 20 nM of either cBid (A,B) or cBidmt1(C,D) at pH 7. Liposome permeabilization was quantified by fluorescence after 5h incubation at 37 °C where 100% release was defined as the fluorescence change due to lipid solubilization with 1% Triton X-100. […] Error bars, std. dev. n = 3. To compare between the TCTP treated groups and the Control group statistically, two-way ANOVA test was performed for (A–D) and one-way ANOVA test was performed for (E). […] Colored asterisks above each data point indicate the statistical significance (*p < 0.05; **p < 0.01, no asterisks if p ≥ 0.05). A complete statistical analysis is provided in Supplementary Table 2–4. (F) Permeabilization assays of mitochondrial membrane by tBid and Bax assessing cytochrome c release. […] Cyto c extra-mito: in the supernatant, analysed by Western blot. […]
Figure 10 A,B) or cBid mt1 (Supplementary Figure 10 C,D) at pH 7 to quantify the activity of Bcl-xL inhibition of liposome permeablization. […]
the Control group (No TCTP) were analyzed through Dunnett's multiple comparisons test at each sample condition (Bcl-XL concentration) for statistical significance. […]
Statistical significance was analyzed through Dunnett's multiple comparisons test. […]

[2] = tested on: Bax mediated cytochrome c release, Bcl-xL; experiment: Cytochrome c release from purified mitochondria by tBid and Bax in the presence of Bcl-xL; assay type: biochemical; conditions: mouse liver mitochondria; 5 nM tBid, 50 nM Bax, 300 nM Bcl-xL; 15 min, 30 °C; Western blot; pre-incubation pH 9, 30 °C
Protocol: as §1, with “2–4.” for “2–4. (F) Permeabilization assays of mitochondrial membrane by tBid and Bax assessing cytochrome c release.”
to highlight the pre-incubation), pH 9, 30 C° before being added to the mitochondria at their final concentrations. […] Cytochrome c was detected in the mitochondrial fraction (Cyto c intra-mito) or in the supernatant (Cyto c extra-mito) by Western blot analysis. […]
Cytochrome c release assay. […] Mitochondrial pellets and the corresponding supernatant fractions were subjected to SDS-polyacrylamide gel electrophoresis and analyzed by Western blotting for cytochrome c.

Substance: TCTP: Translationally Controlled Tumor Protein (TCTP/tpt1), recombinant full-length
- effect on cBidmt1-Bax induced permeabilization not containing Bcl-xL [1]: no effect
- inhibition of cytochrome c release in the presence of Bcl-xL [2]: inhibit cytochrome c release in a concentration-dependent manner

Source: article PMC4728560 (Scientific Reports, 2016)
